Experiments:
[1] = TNS fluorescence assay: experimental pKa of formulated lipid nanoparticles; assay type: physicochemical; details: experimental surface pKa of empty LNP, cationic lipid/DSPC/cholesterol/PEG-lipid (50/10/38.5/1.5)
Protocol: The pKa of each cationic lipid was determined in lipid nanoparticles using an assay based on fluorescence of 6-(p-Toluidino)-2-naphthalenesulfonic acid sodium salt (TNS, Sigma Aldrich), which is a fluorescent probe for the conformational state of proteins^5. Empty lipid nanoparticles comprising of cationic lipid/DSPC/cholesterol/PEG-lipid (50/10/38.5/1.5) in distilled water at a concentration of 3.125 mM total lipid are formulated using NanoAssemblr® Spark™, and were then was characterized for LNP quality on the Zetasizer™ using a 30× dilution with 1×PBS in the low volume cuvette. Lipid nanoparticles were further diluted 4× using distilled water to 0.781 mM total lipid. TNS was prepared as a 25 μM stock solution in distilled water. Then 6.4 μL of diluted LNP samples of 0.781 mM total lipid were mixed with 10 μL of diluted TNS to a final volume of 250 μL with buffer containing 10 mM HEPES, 10 mM MES, 10 mM NH4OAc and 130 mM NaCl where the pH ranged from 3 to 9 in 0.5 pH increments.
Samples were mixed thoroughly, and the fluorescence intensity was measured at room temperature in a BioTek™ Synergy™ H1 Hybrid Multi-Mode Monochromator™ Fluorescence Microplate Reader using excitation and emission wavelengths of 321 nm and 445 nm respectively. A sigmoidal best fit analysis was applied to the fluorescence data using GraphPad Prism™ software, and the pKa was measured as the pH at half-maximal fluorescence intensity.

[2] = LNP characterization: size and PDI by dynamic light scattering, mRNA encapsulation efficiency by RiboGreen assay; assay type: physicochemical
Protocol: Particle sizes and “polydispersity index” (PDI) of the lipid particle were measured by dynamic light scattering (DLS). PDI indicates the width of the particle distribution. This is a parameter calculated from a cumulative analysis of the (DLS)-measured intensity autocorrelation function assuming a single particle size mode and a single exponential fit to the autocorrelation function. […] The particles produced by mechanical micromixers such as the NanoAssemblr® Spark™ and NanoAssemblr® Benchtop (Precision NanoSystems Inc.) are substantially homogeneous in size assuming all other variables are neutral. A lower PDI indicates a more homogenous population of lipid particles. The Spark™ instrument is used in a screening setting to identify the lead compositions. Once the composition is selected, the lipid particle can be fine-tuned using the NanoAssemblr® Benchtop. Once the process parameters Flow Rate Ratio and Total Flow Rate is identified for the specific nanoparticle composition, the nanoparticle technology can be scaled up using the same process parameter values.
Lipid particles were also manufactured by a larger microfluidic mixer instrument, the NanoAssemblr® Ignite™ for testing. Briefly, 350 μL of mRNA was diluted using 100 mM sodium acetate buffer to the required concentration of 0.2 to 0.3 mg/mL. Lipid particle samples were then prepared by running both fluids, namely, nucleic acids in aqueous solvent and Lipid Mix in ethanol at a flow ratio of 3:1 and at a total flow rate of 12 ml/min in the microfluidic mixer. Following mixing in the microfluidic device, the post cartridge lipid nucleic acid particle sample was diluted into RNAse free tubes containing three to 40 volumes of phosphate buffered saline (PBS), pH 7.4. Ethanol was finally removed through dialysis in PBS, pH 7, or using Amicon™ centrifugal filters (Millipore, USA) at 3000 RPM, or using TFF systems. Once the required concentration was achieved, the lipid nucleic acid particles were filter sterilized using 0.2 μm filters in aseptic conditions. Final encapsulation efficiency was measured by the Ribogreen™ assay. Quant-iT™ RiboGreen® RNA Reagent and Kit (Invitrogen) following manufacturer directions.
Messenger RNA or plasmid nucleic acid therapeutic (NAT) as described below, was diluted using sodium acetate buffer to the required concentration. Lipid nucleic acid particle (LNAP) samples were then prepared by running both fluids using the NanoAssemblr® Spark instrument. Briefly, […] of nucleic acids in 100 mM sodium acetate buffer in a total volume of 32 μL was mixed with 16 μL of 37.5 mM lipid mix solution as required by the N/P ratios (4, 6, or 10 in illustrated examples). The microfluidically mixed lipid nucleic acid particles (LNAP) made in the instrument were immediately diluted down with 48 μL Ca++ and Mg++ free 1× PBS at pH 7.4 in the aqueous output well. These LNAP were immediately collected into microcentrifuge tubes containing 96 μL of the same buffer at pH 7.4. Encapsulation efficiency was measured by a modified Ribogreen™ assay (Quanti-iT RiboGreen™ RNA assay kit, Fisher). This information was used to establish the desired dosage.
After the lipid particles were made as described in Example 17, particle size (hydrodynamic diameter of the particles) was determined by Dynamic Light Scattering (DLS) using a ZetaSizer™ Nano ZS™ (Malvern Instruments, UK). He/Ne laser of 633 nm wavelength was used as the light source. Data were measured from the scattered intensity data conducted in backscattering detection mode (measurement angle=173). Measurements were an average of 10 runs of two cycles each per sample. Z-Average size was reported as the particle size, and is defined as the harmonic intensity averaged particle diameter. These LNP characteristics, as well as the results of the mRNA encapsulation efficiency for various Lipid Mixes are also described in the application are shown in Tables 4, 5 and 6. […]

[3] = 5-moU EPO encoded LNPs, IL:DSPC:cholesterol:DMG-PEG (50:10:38.5:1.5), N/P 6
[4] = Table 4 LNPs, payload and lipid mix not stated
[5] = OVA encoded LNPs, payload WT OVA, LM02, N/P 8

In the case of CC/C=C\CC1C(CC(=O)OCCC(CCCCCCCC)OC(=O)C(CCCCCC)CCCCCCCC)CCC1OC(=O)C1(C)CCN(C)CC1 (stereo not shown) [PNI 565], the pKa [1] is reported as 5.99, the “Diameter (Z. ave, nm)” value [2, 3] is reported as 60.8 nm and the “Encapsulation Efficiency (%)” value [2, 3] is reported as 97.9%. The “Polydispersity Index (PDI)” value [2, 3] was 0.03, the “Diameter (Z. ave, nm)” value [2, 4] was 69.9 nm and the “Encapsulation Efficiency (%)” value [2, 4] was 97.4%. For the same compound, the “Polydispersity Index (PDI)” value [2, 4] was 0.03.

In the case of CC/C=C\CC1C(CC(=O)OCC(COCCCCCCCC/C=C\C/C=C\CCCCC)OCCCCCCCC/C=C\C/C=C\CCCCC)CCC1OC(=O)CCCN(C)C (stereo not shown) [PNI 101], the pKa [1] is reported as 6.37, the “Diameter (Z. ave, nm)” value [2, 3] is reported as 97.7 nm and the “Encapsulation Efficiency (%)” value [2, 3] is reported as 93.4%. The “Polydispersity Index (PDI)” value [2, 3] was 0.08, the “Diameter (Z. ave, nm)” value [2, 5] was 93.2 nm and the “Encapsulation Efficiency (%)” value [2, 5] was 98.4%. The “Polydispersity Index (PDI)” value [2, 5] was 0.09, the “Diameter (Z. ave, nm)” value [2, 4] was 74.10 nm and the “Encapsulation Efficiency (%)” value [2, 4] was 93.0%. The “Polydispersity Index (PDI)” value [2, 4] was 0.156.

In the case of CCCCCCCCC1CC1CCCCCCCCOCC(COC(=O)CC1CCC(OC(=O)CCCN(C)C)C1CC1CC1CC)OCCCCCCCCC1CC1CCCCCCCC (stereo not shown) [PNI 545], the pKa [1] is reported as 5.91, the “Diameter (Z. ave, nm)” value [2, 3] is reported as 59.0 nm and the “Encapsulation Efficiency (%)” value [2, 3] is reported as 98.6%. The “Polydispersity Index (PDI)” value [2, 3] was 0.04, the “Diameter (Z. ave, nm)” value [2, 4] was 63.9 nm and the “Encapsulation Efficiency (%)” value [2, 4] was 98.4%. For the same compound, the “Polydispersity Index (PDI)” value [2, 4] was 0.07.

For CC/C=C\CC1C(CC(=O)OCC(COCCCCCCCC/C=C\C/C=C\CCCCC)OCCCCCCCC/C=C\C/C=C\CCCCC)CCC1OC(=O)CCCN(CC)CC (stereo not shown) [PNI 542], the pKa [1] was 6.11, the “Diameter (Z. ave, nm)” value [2, 3] was 68.5 nm and the “Encapsulation Efficiency (%)” value [2, 3] was 98.7%. For the same compound, the “Polydispersity Index (PDI)” value [2, 3] was 0.02, the “Diameter (Z. ave, nm)” value [2, 5] was 74.6 nm and the “Encapsulation Efficiency (%)” value [2, 5] was 98.7%. The “Polydispersity Index (PDI)” value [2, 5] was 0.01, the “Diameter (Z. ave, nm)” value [2, 4] was 79.4 nm and the “Encapsulation Efficiency (%)” value [2, 4] was 98.8%. The “Polydispersity Index (PDI)” value [2, 4] was 0.04.

In the case of CC/C=C\CC1C(CC(=O)OC(CCCCCCCCC2CC2CCCCCCCC)CCCCCCCCC2CC2CCCCCCCC)CCC1OC(=O)C1(C)CCN(C)CC1 (stereo not shown) [PNI 560], the pKa [1] is reported as 5.7, the “Diameter (Z. ave, nm)” value [2, 3] is reported as 63.1 nm and the “Encapsulation Efficiency (%)” value [2, 3] is reported as 98.7%. For the same compound, the “Polydispersity Index (PDI)” value [2, 3] was 0.06, the “Diameter (Z. ave, nm)” value [2, 5] was 76.7 nm and the “Encapsulation Efficiency (%)” value [2, 5] was 97.7%. The “Polydispersity Index (PDI)” value [2, 5] was 0.05, the “Diameter (Z. ave, nm)” value [2, 4] was 60.5 nm and the “Encapsulation Efficiency (%)” value [2, 4] was 98.4%. For the same compound, the “Polydispersity Index (PDI)” value [2, 4] was 0.06.

In the case of CC/C=C\CC1C(CC(=O)OCC(COCCCCCCCC/C=C\C/C=C\CCCCC)OCCCCCCCC/C=C\C/C=C\CCCCC)CCC1OC(=O)CCCN1CCCC1 (stereo not shown) [PNI 558], the pKa [1] is reported as 6.28, the “Diameter (Z. ave, nm)” value [2, 3] is reported as 73.2 nm and the “Encapsulation Efficiency (%)” value [2, 3] is reported as 98.9%. For the same compound, the “Polydispersity Index (PDI)” value [2, 3] was 0.03, the “Diameter (Z. ave, nm)” value [2, 4] was 91.2 nm and the “Encapsulation Efficiency (%)” value [2, 4] was 98.7%. For the same compound, the “Polydispersity Index (PDI)” value [2, 4] was 0.07.

With CC/C=C\CC1C(CC(=O)OCC(COCCCCCCCC/C=C\C/C=C\CCCCC)OCCCCCCCC/C=C\C/C=C\CCCCC)CCC1OC(=O)CC1CCN(C)C1 (stereo not shown) [PNI 557] the pKa [1] was 6.7, the “Diameter (Z. ave, nm)” value [2, 3] was 71.8 nm and the “Encapsulation Efficiency (%)” value [2, 3] was 98.9%. For the same compound, the “Polydispersity Index (PDI)” value [2, 3] was 0.08, the “Diameter (Z. ave, nm)” value [2, 4] was 95.4 nm and the “Encapsulation Efficiency (%)” value [2, 4] was 98.7%. The “Polydispersity Index (PDI)” value [2, 4] was 0.02.
